Tested on: neutrophils
Test: TNF suppression of neutrophil apoptosis, kinase inhibitor pretreatment (initial studies)
Format: cell-based
Conditions: pretreatment with kinase inhibitor
Text: δ-PKC has been identified as an important regulator of cytokine mediated anti-apoptotic and pro-inflammatory signaling in adherent neutrophils (Kilpatrick, L. E., et al. (2002) Am J Physiol Cell Physiol 283, C48-57; Kilpatrick, L. E., et al. (2004) Am J Physiol Cell Physiol 287, C633-42; Kilpatrick, L. E., et al. (2006) J Leukoc Biol. 80:1512-1521; Kilpatrick, L. E., et al. (2000) Am J Physiol Cell Physiol 279, C2011-8). Neutrophils undergo spontaneous apoptosis which can be suppressed in vitro by culturing cells in the presence of cytokines such as TNF (Kilpatrick, L. E., et al. (2002) Am J Physiol Cell Physiol 283, C48-57; Kilpatrick, L. E., et al. (2006) J Leukoc Biol. 80:1512-1521). […] Activation of caspases is one of the earliest markers of apoptosis occurring upstream of DNA fragmentation and PS externalization. Caspase 3 plays a critical role in spontaneous neutrophil apoptosis (Kilpatrick, L. E., et al. (2002) Am J Physiol Cell Physiol 283, C48-57; Daigle, I., Simon, H. U. (2001) Int Arch Allergy Immunol 126, 147-56; Scheel-Toellner, D., et al. (2004) Blood 104, 2557-64). […] However, recent reports have raised issues about the specificity of rottlerin as a δ-PKC inhibitor (Davies, S. P., et al. (2000) Biochem J 351, 95-105). To establish a role specifically for δ-PKC in the TNF-mediated anti-apoptotic signaling, a more specific inhibitor is required. […]

CC(=O)c1c(O)c(C)c(O)c(Cc2c(O)c3c(c(C(=O)/C=C/c4ccccc4)c2O)OC(C)(C)C=C3)c1O [rottlerin]
suppression of neutrophil apoptosis by TNF: inhibited
